{
  "source": "paper PMC5171800",
  "about": "“Genes encoding norcoclaurine synthase occur as tandem fusions in the Papaveraceae” (Scientific Reports, 2016)",
  "key": {"NDONCS3": {"system": "T1, NDONCS3", "T1 construct": "full-length single-domain polypeptide with signal peptide region retained; His-tagged (pET29b), E. coli, TALON purified", "assay": "CD spectroscopy at […] nm, (S)-norcoclaurine formation", "format": "biochemical, Nandina domestica", "details": "pH 7.3, 37 °C, 50 mM phosphate"}, "CCHNCS2": {"system": "T2, CCHNCS2", "T2 construct": "full-length natural tandem fusion of two NCS domains; His-tagged (pET29b), E. coli, TALON purified (purification section prints CCHNCS1)", "assay": "CD spectroscopy at […] nm, (S)-norcoclaurine formation", "format": "biochemical, Corydalis cheilanthifolia", "details": "saturating dopamine; pH 7.3, 37 °C, 50 mM phosphate; 4-HPAA kinetics sigmoidal, table gives Hill coefficient for dopamine"}, "O=CCc1ccc(O)cc1": {"system": "O=CCc1ccc(O)cc1", "assay": "purified protein", "format": "biochemical, Thalictrum flavum", "details": "saturating dopamine, pH 7.3, 37 °C, 50 mM phosphate, 4-HPAA kinetics sigmoidal, table gives Hill coefficient for dopamine"}},
  "note": "Where two headings read alike, the source gives them in different places.",
  "data": [
    {"molecule": "NCCc1ccc(O)c(O)c1", "note": "[dopamine]", "values": [
      {"measurement": "Km", "setting": "NDONCS3; saturating 4-HPAA, Hill fit by table (the source assigns sigmoidal kinetics to 4-HPAA), read-out: K’m (μM) (dopamine)", "result": "347 ± 35", "unit": "µM"}
    ]},
    {"molecule": "O=CCc1ccc(O)cc1", "note": "[4-hydroxyphenylacetaldehyde]", "values": [
      {"measurement": "Km", "setting": "CCHNCS2", "result": "1830 ± 697", "unit": "µM"},
      {"measurement": "Km", "setting": "NDONCS3; saturating dopamine, 4-HPAA kinetics sigmoidal, table gives Hill coefficient for dopamine, read-out: Km (μM) (4-HPAA)", "result": "480 ± 120", "unit": "µM"}
    ]},
    {"molecule": "TFLNCS2Δ25 (Thalictrum flavum)", "values": [
      {"measurement": "Km", "setting": "O=CCc1ccc(O)cc1", "result": "494 ± 112", "unit": "µM"},
      {"measurement": "kcat", "setting": "O=CCc1ccc(O)cc1", "result": "2.4 ± 0.2", "unit": "s⁻¹"}
    ]}
  ]
}
